Results published in article PMC5053573, “Structure-Based Design of Tetrahydroisoquinoline-7-carboxamides as Selective Discoidin Domain Receptor 1 (DDR1) Inhibitors” (Journal of Medicinal Chemistry, 2016).

What was measured:
Assay in all cases: biochemical
Conditions in all cases: read-out: %Ctrl @ 1000nM
[1] = molecular target: T1, PFTAIRE2 (Homo sapiens, UniProt Q96Q40)
T1 construct: gene CDK15

[2] = molecular target: T2, PRKR (Homo sapiens, UniProt P19525)
T2 construct: gene EIF2AK2

[3] = molecular target: EGFR(L747-S752del, P753S) (Homo sapiens, UniProt P00533, DEL747-752/P753S)
[4] = molecular target: PIKFYVE (Homo sapiens, UniProt Q9Y2I7)
[5] = molecular target: PRKD2 (Homo sapiens, UniProt Q9BZL6)
[6] = molecular target: CAMK2A (Homo sapiens, UniProt Q9UQM7)
[7] = molecular target: EPHA2 (Homo sapiens, UniProt P29317)
[8] = molecular target: HIPK1 (Homo sapiens, UniProt Q86Z02)
[9] = molecular target: FGFR4 (Homo sapiens, UniProt P22455)
[10] = molecular target: PLK1 (Homo sapiens, UniProt P53350)
[11] = molecular target: DYRK2 (Homo sapiens, UniProt Q92630)
[12] = molecular target: CDK4 (Homo sapiens, UniProt P11802)
[13] = molecular target: DDR2 (Homo sapiens, UniProt Q16832)
[14] = molecular target: MAPKAPK2 (Homo sapiens, UniProt P49137)
[15] = molecular target: CAMKK1 (Homo sapiens, UniProt Q8N5S9)
[16] = molecular target: T3, ERK4 (Homo sapiens, UniProt P31152)
T3 construct: gene MAPK4

[17] = molecular target: T4, SGK (Homo sapiens, UniProt O00141)
T4 construct: gene SGK1

[18] = molecular target: CSNK1A1L (Homo sapiens, UniProt Q8N752)
[19] = molecular target: SRPK2 (Homo sapiens, UniProt P78362)
[20] = molecular target: CDK2 (Homo sapiens, UniProt P24941)
[21] = molecular target: FLT3(R834Q) (Homo sapiens, UniProt P36888, R834Q)
[22] = molecular target: BTK (Homo sapiens, UniProt Q06187)
[23] = molecular target: PLK2 (Homo sapiens, UniProt Q9NYY3)
[24] = molecular target: PIK3CA(H1047Y) (Homo sapiens, UniProt P42336, H1047Y)
[25] = molecular target: FRK (Homo sapiens, UniProt P42685)
[26] = molecular target: PRKCI (Homo sapiens, UniProt P41743)
[27] = molecular target: MAP4K2 (Homo sapiens, UniProt Q12851)
[28] = molecular target: T5, BRK (Homo sapiens, UniProt Q13882)
T5 construct: gene PTK6

[29] = molecular target: T6, p38-gamma (Homo sapiens, UniProt P53778)
T6 construct: gene MAPK12

[30] = molecular target: T7, GCN2(Kin.Dom.2,S808G) (Homo sapiens, UniProt Q9P2K8, S808G)
T7 construct: gene EIF2AK4

[31] = molecular target: T8, TIE2 (Homo sapiens, UniProt Q02763)
T8 construct: gene TEK

[32] = molecular target: RIOK3 (Homo sapiens, UniProt O14730)
[33] = molecular target: PIM3 (Homo sapiens, UniProt Q86V86)
[34] = molecular target: ABL1-nonphosphorylated (Homo sapiens, UniProt P00519)
[35] = molecular target: PKN1 (Homo sapiens, UniProt Q16512)

Chain of ABL1-nonphosphorylated (P00519 whole entry): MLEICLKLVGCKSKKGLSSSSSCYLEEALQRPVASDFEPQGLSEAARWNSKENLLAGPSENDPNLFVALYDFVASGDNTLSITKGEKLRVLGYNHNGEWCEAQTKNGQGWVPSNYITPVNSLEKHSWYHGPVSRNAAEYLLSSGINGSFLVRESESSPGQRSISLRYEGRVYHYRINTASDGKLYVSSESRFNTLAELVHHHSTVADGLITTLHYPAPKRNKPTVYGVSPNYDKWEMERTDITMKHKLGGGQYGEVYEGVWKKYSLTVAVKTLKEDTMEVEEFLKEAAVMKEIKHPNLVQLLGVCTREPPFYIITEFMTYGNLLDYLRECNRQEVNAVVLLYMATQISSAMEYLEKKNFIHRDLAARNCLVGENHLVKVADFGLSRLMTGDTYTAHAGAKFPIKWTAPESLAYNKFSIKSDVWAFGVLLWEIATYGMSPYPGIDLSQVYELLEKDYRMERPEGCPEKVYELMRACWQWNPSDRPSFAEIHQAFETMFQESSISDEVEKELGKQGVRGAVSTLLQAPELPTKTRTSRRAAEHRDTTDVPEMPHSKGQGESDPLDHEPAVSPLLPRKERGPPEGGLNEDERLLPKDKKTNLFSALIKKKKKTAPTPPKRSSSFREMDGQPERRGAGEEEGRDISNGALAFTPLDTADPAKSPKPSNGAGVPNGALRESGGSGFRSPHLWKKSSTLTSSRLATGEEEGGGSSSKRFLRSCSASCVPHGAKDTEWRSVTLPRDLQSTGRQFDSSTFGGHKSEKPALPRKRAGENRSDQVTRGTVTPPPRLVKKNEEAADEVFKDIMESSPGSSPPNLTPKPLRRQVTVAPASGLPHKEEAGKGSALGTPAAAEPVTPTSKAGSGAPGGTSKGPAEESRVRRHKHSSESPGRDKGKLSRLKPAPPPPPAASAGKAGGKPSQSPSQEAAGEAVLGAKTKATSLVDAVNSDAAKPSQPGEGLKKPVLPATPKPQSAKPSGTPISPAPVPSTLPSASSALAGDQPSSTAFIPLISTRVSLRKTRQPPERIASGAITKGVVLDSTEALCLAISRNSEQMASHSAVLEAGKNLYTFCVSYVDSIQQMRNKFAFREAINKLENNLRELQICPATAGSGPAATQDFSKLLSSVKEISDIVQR
Chain of PLK2 (Q9NYY3 whole entry): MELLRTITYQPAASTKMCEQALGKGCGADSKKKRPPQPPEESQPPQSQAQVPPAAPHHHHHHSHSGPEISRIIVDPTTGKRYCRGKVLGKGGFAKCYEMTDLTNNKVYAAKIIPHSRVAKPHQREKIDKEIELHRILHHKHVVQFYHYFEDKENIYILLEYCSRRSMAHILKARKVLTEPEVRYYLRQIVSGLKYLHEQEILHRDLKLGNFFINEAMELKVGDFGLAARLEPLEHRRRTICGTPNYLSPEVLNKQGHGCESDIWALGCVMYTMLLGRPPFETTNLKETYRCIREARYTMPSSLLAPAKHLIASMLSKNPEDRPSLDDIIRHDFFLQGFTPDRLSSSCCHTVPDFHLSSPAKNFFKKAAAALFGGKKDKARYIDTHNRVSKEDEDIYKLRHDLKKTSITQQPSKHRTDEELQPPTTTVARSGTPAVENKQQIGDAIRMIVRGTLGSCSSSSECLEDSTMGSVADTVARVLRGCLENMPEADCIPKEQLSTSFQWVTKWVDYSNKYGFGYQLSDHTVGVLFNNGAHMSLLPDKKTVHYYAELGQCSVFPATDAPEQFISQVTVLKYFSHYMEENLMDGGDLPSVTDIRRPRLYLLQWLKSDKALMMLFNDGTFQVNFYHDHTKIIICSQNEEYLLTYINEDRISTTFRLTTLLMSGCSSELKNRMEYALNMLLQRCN
Chain of BTK (Q06187 whole entry): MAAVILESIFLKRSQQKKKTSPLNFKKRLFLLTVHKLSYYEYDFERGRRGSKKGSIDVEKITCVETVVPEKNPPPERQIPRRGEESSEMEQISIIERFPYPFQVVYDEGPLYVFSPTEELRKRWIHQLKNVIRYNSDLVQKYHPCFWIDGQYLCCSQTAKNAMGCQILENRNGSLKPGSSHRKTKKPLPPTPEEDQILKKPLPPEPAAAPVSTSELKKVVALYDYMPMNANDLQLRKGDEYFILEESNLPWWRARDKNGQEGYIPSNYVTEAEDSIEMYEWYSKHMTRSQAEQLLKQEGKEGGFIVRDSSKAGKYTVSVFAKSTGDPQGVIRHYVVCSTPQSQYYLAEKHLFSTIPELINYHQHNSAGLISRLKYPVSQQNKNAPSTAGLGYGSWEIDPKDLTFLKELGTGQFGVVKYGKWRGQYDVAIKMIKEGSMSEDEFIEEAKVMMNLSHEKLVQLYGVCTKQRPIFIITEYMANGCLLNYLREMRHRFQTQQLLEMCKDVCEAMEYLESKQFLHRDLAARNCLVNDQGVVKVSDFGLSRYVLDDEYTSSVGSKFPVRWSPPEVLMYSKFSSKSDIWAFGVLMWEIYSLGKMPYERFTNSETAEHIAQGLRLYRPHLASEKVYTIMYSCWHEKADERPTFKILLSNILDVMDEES
T8 sequence (Q02763 whole entry): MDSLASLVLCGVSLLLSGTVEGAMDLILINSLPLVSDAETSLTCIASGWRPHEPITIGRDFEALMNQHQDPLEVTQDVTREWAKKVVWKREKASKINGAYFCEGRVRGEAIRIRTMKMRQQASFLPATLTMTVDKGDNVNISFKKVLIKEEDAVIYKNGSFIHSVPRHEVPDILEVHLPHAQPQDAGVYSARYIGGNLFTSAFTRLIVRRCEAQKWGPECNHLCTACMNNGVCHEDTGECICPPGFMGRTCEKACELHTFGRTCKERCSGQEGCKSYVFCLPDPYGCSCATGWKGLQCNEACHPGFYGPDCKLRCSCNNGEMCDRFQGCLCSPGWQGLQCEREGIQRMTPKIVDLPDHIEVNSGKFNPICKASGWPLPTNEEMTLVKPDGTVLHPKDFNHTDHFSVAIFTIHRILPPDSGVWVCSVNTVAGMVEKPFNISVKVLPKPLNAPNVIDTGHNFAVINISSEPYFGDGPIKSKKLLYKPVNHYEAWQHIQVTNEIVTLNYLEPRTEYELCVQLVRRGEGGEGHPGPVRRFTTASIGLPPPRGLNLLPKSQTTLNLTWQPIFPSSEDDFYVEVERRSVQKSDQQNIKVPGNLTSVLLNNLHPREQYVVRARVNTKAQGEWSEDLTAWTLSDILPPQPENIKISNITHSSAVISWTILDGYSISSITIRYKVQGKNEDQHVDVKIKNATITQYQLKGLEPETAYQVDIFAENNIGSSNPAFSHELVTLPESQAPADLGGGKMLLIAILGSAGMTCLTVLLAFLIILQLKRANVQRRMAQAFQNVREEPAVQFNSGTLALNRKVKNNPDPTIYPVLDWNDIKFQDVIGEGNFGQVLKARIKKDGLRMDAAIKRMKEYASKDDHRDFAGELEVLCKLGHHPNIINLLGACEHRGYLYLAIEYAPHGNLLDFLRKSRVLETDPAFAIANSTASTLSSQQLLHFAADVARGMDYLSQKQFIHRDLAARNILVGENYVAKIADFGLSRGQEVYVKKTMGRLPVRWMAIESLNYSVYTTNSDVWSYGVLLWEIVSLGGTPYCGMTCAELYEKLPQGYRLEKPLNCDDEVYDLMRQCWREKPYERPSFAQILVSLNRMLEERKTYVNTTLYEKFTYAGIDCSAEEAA
Chain of HIPK1 (Q86Z02 whole entry): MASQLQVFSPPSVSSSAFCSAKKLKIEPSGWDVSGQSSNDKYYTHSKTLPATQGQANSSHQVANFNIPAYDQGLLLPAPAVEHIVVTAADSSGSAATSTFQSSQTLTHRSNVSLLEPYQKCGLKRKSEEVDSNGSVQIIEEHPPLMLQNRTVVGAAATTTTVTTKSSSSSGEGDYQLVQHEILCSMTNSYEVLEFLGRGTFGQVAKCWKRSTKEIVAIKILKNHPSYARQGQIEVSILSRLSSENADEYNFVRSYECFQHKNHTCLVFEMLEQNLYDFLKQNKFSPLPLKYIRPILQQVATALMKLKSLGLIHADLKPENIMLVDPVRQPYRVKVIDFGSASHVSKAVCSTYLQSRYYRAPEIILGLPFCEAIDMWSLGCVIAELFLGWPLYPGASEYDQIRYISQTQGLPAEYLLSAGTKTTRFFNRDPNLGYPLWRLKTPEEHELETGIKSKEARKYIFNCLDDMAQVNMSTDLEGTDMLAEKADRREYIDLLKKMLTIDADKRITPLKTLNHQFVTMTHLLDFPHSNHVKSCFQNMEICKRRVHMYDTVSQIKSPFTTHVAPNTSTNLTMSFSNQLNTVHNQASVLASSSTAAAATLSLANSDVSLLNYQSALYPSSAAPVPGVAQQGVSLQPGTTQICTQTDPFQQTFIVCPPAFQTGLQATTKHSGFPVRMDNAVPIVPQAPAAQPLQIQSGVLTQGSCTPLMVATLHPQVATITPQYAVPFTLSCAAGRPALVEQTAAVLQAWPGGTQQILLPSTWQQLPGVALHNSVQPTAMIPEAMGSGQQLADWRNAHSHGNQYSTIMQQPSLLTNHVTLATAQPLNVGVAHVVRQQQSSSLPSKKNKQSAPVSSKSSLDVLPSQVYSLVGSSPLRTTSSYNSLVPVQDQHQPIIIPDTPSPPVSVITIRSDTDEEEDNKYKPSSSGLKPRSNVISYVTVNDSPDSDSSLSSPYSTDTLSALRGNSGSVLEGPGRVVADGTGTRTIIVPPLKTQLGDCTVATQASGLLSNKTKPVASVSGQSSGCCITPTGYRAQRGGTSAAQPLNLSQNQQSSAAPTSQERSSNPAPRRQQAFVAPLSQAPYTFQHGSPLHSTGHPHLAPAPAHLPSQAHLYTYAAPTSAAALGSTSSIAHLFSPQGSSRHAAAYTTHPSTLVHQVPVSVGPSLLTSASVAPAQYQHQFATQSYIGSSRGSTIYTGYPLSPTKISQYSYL

**Q.** What does the source list for `Cc1cn(-c2cc(NC(=O)c3ccc4c(c3)CN(c3cncnc3)C[C@@H]4C)cc(C(F)(F)F)c2)cn1` [Compound 6j]?
**A.** remaining activity at 1 µM [1]: 86%; remaining activity at 1 µM [2]: 100%; remaining activity at 1 µM [3]: 83%; remaining activity at 1 µM [4]: 100%; remaining activity at 1 µM [5]: 92%; remaining activity at 1 µM [6]: 97%; remaining activity at 1 µM [7]: 65%; remaining activity at 1 µM [8]: 85%; remaining activity at 1 µM [9]: 85%; remaining activity at 1 µM [10]: 97%; remaining activity at 1 µM [11]: 100%; remaining activity at 1 µM [12]: 98%; remaining activity at 1 µM [13]: 0.35%; remaining activity at 1 µM [14]: 100%; remaining activity at 1 µM [15]: 64%; remaining activity at 1 µM [16]: 93%; remaining activity at 1 µM [17]: 100%; remaining activity at 1 µM [18]: 69%; remaining activity at 1 µM [19]: 100%; remaining activity at 1 µM [20]: 86%; remaining activity at 1 µM [21]: 86%; remaining activity at 1 µM [22]: 100%; remaining activity at 1 µM [23]: 100%; remaining activity at 1 µM [24]: 45%; remaining activity at 1 µM [25]: 63%; remaining activity at 1 µM [26]: 72%; remaining activity at 1 µM [27]: 93%; remaining activity at 1 µM [28]: 84%; remaining activity at 1 µM [29]: 79%; remaining activity at 1 µM [30]: 100%; remaining activity at 1 µM [31]: 64%; remaining activity at 1 µM [32]: 100%; remaining activity at 1 µM [33]: 94%; remaining activity at 1 µM [34]: 13%; remaining activity at 1 µM [35]: 100%
